Common to all, as to format: cell-based
Test [1] has as its target T1, ERα (Homo sapiens, UniProt P03372).
T1 sequence (P03372 1-595): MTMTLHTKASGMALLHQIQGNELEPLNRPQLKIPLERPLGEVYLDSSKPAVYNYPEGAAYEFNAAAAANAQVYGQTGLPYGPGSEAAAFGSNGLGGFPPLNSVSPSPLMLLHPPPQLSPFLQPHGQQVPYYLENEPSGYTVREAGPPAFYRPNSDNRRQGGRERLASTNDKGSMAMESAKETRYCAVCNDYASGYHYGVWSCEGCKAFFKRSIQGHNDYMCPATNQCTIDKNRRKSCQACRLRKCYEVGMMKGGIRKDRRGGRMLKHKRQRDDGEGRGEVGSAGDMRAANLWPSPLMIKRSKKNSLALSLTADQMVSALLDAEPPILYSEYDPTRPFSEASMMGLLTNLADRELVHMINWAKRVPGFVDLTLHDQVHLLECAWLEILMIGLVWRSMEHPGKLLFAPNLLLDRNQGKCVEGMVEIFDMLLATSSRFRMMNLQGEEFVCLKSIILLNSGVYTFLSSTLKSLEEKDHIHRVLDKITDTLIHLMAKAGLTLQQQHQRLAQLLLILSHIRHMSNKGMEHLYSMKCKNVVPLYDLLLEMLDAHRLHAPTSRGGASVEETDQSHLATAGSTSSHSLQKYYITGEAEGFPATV
The test is described as follows: ERE luciferase reporter gene assay in T47D-KBluc cells (target engagement). Further details: T47D human breast cancer cells stably transfected with estrogen responsive element/promoter/luciferase reporter gene; host or cells: T47D-KBluc cells. The conditions noted are these: 10% FBS, 24 hours. An outline of the steps:
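T47D-KBluc breast cancer cells, which carry a stable ERE-luciferase reporter, were grown in RPMI with 10% FBS (about 10 pM estrogen) and exposed to PROTACs for 24 h. The 12-point, 3-fold series ran from 300 nM to 2 pM. Luciferase was read after lysis, and IC50 was fitted from duplicates.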
(Reporter assays use an easily measured gene product as a stand-in for the process of interest.)

Test [2] concerns the target T1, ERα. The test is described as follows: Estrogen receptor-alpha (ERα) degradation assay in MCF-7 cells using western blot. Also on record: assessed for their activity in degrading ERα in MCF-7 cells via western blot; endogenous in cells; host or cells: MCF7 cells. The conditions noted are these: ER-alpha degradation, MCF7 cells, 3 days of incubation. The method, then:
Compounds prepared in this application were also analyzed for the degradation of ERα in MCF7 and T47D cells.
Estrogen Receptor-Alpha (ERα) Degradation Assay in MCF-7 Cells Using Western Blot Method for Table 4.
The exemplary novel ERα degraders were assessed for their activity in degrading ERα in MCF-7 cells via western blot. The assay was carried out in the presence of 10% fetal bovine serum (FBS) or high percentage of human or mouse serum.
MCF7 cells were grown in DMEM/F12 with 10% fetal bovine serum and seeded at 24,000 cells per well in 100 μl into 96-well clear tissue culture plates. The following day, the cells were treated with PROTACs in a […] concentration curve with 100 nM being the top concentration and serial dilutions to make the other concentrations (30 nM, 10 nM, 3 nM, 1 nM, and 0.3 nM). At all concentrations, 0.01% DMSO is the final concentration in the well. The following day, the plates are aspirated, washed with 50 μl of cold PBS. The cells are lysed with 50 μl/well 4° C. Cell Lysis Buffer (Catalog #9803; Cell Signaling Technology, Danvers, Mass.) (20 mM Tris-HCL (pH 7.5), 150 mM NaCl, 1 mM […], 1 mM EGTA, 1% Triton, 2.5 mM sodium pyrophosphate, 1 mM B-glycerophosphate, 1 mM sodium vanadate, 1 ug/ml leupeptin). Lysates were clarified at 16,000×g for 10 minutes, and 2 μg of protein was subjected to SDS-PAGE analysis and followed by immunoblotting according to standard protocols. The antibodies used were ERα (Cell Signaling Technologies Catalog #8644), and Tubulin (Sigma Catalog #T9026; St. Louis, Mo.). Detection reagents were Clarity Western ECL substrate (Bio-Rad Catalog #170-5060; Hercules, Calif.).
Alternatively, MCF7 cells were grown in DMEM/F12 with 10% fetal bovine serum and seeded at 24,000 cells per well in 500 μl in 24-well clear tissue culture plates. The following day, the cells were treated with PROTACs in a 5-point concentration curve (100 nM, 33 nM, 11 nM, 3.7 nM, and 1.2 nM) in the presence of 0.01% DMSO. After 72 hours, the wells are aspirated and washed with 500 μl of PBS. The cells are lysed with 100 μl/well 4° C. Cell Lysis Buffer (Catalog #9803; Cell Signaling Technology, Danvers, M A) (20 mM Tris-HCL (pH 7.5), 150 mM NaCl, 1 mM Na2EDTA, 1 mM EGTA, 1% Triton, 2.5 mM sodium pyrophosphate, 1 mM B-glycerophosphate, 1 mM sodium vanadate, 1 ug/ml leupeptin). Lysates were clarified at 16,000×g for 10 minutes, and 2 μg of protein was subjected to SDS-PAGE analysis and followed by immunoblotting according to standard protocols. The antibodies used were ER(X (Cell Signaling Technologies Catalog #8644), and Tubulin (Sigma Catalog #T9026; St. Louis, Mo.). Detection reagents were Clarity Western ECL substrate (Bio-Rad Catalog #170-5060; Hercules, Calif.).
(In general: Immunoblotting shows a protein as a band on a membrane.)

Test [3] concerns the target T1, ERα. Description: Estrogen receptor-alpha (ERα) degradation assay in MCF7 cells using In-Cell Western assay. Further details: assessed for their activity in degrading ERα in MCF-7 cells via western blot; endogenous in cells; host or cells: MCF7 cells. The conditions noted are these: ER-alpha degradation in MCF7 cells, 5 days of incubation. The method in brief:
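MCF7 cells treated 3 or 5 days at 37 °C with 11-point 3-fold dilutions from 1 μM final top. Fixed cells immunostained for ERα and tubulin, read by infrared imaging at 700/800 nm. ERα normalized to tubulin then to DMSO vehicle; DC50 and Dmax from 4-parameter curve fit.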

Setting [4] is: Table 2 VHL centric PROTACs, read-out: IC50.
The mark [5] stands for this setting: Table 3 cereblon centric PROTACs, read-out: ER-α Luciferase IC50.

The IC50 is the concentration needed to halve the response being measured. A word on the DC50: it is the midpoint of the concentration-degradation curve. A lower DC50 goes with a more potent degrader. As usually defined, the Dmax is the greatest extent of degradation seen.

Where two headings read alike, the source gives them in different places. Where only a bound is given, the exact number is not on record here.

On to `Cc1ncsc1-c1ccc([C@H](C)NC(=O)[C@@H]2C[C@@H](O)CN2C(=O)[C@@H](NC(=O)Cc2ccc(-c3ccn(CCOc4ccc(Oc5c(-c6ccc(F)cc6)sc6cc(O)ccc56)cc4)n3)cc2)C(C)(C)C)cc1` [Compound 141, (2S,4R)-1-[(2S)-2-[2-(4-[1-[2-(4-[[2-(4-fluorophenyl)-6-hydroxy-1-benzothiophen-3-yl]oxy]phenoxy)ethyl]-1H-pyrazol-3-yl]phenyl)acetamido]-3,3-dimethylbutanoyl]-4-hydroxy-N-[(1S)-1-[4-(4-methyl-1,3-thiazol-5-yl)phenyl]ethyl]pyrrolidine-2-carboxamide], for which the IC50 at ERα [1] (setting [4]) is 1.5 nM. On ERα [2], this molecule yielded a DC50 of 1 to 10 nM and a Dmax of over 75%.
Consider `Cc1ncsc1-c1ccc(CNC(=O)[C@@H]2C[C@@H](O)CN2C(=O)[C@@H](NC(=O)COCCN2CCN(CCOc3ccc(Oc4c(-c5ccc(Cl)cc5)sc5cc(O)ccc45)cc3)CC2)C(C)(C)C)cc1` [Compound 151, (2S,4R)-1-[(2S)-2-[2-(2-[4-[2-(4-[[2-(4-chlorophenyl)-6-hydroxy-1-benzothiophen-3-yl]oxy]phenoxy)ethyl]piperazin-1-yl]ethoxy)acetamido]-3,3-dimethylbutanoyl]-4-hydroxy-N-[[4-(4-methyl-1,3-thiazol-5-yl)phenyl]methyl]pyrrolidine-2-carboxamide], for which the IC50 on ERα [1] (setting [4]) came to 0.4 nM. At ERα [2], the DC50 is under 1 nM and the Dmax was over 75%.
Regarding `Cc1ncsc1-c1ccc([C@H](C)NC(=O)[C@@H]2C[C@@H](O)CN2C(=O)[C@@H](NC(=O)COCCOCCN(C)CCOc2ccc(Oc3c(-c4ccc(F)cc4)sc4cc(O)ccc34)cc2)C(C)(C)C)cc1` [Compound 128, (2S,4R)-1-[(2S)-2-[1-(4[[2-(4-fluorophenyl)-6-hydroxy-1-benzothiophen-3-yl]oxy]phenyl)-4-methyl-1,7,10-trioxa-4-azadodecan-12-amido]-3,3-dimethylbutanoyl]-4-hydroxy-N-[(1S)-1-[4-(4-methyl-1,3-thiazol-5-yl)phenyl]ethyl]pyrrolidine-2-carboxamide], the IC50 on ERα [1] (setting [4]) stood at 0.3 nM. At ERα [2], this molecule came in with a DC50 of under 1 nM and a Dmax of over 75%.
In the case of `Cc1ncsc1-c1ccc(CNC(=O)[C@@H]2C[C@@H](O)CN2C(=O)[C@@H](NC(=O)COCCOCCn2ccc(-c3ccc(Oc4c(-c5ccc(F)cc5)sc5cc(O)ccc45)cc3)cc2=O)C(C)(C)C)cc1` [Compound 134], the IC50 on ERα [1] (setting [4]) was 2.6 nM. On ERα [2], this molecule returned a DC50 of 1 to 10 nM and a Dmax of over 75%.
In the case of `O=C1CCC(N2Cc3nc(N4CCN(CC5CCN(c6ccc(Oc7c(-c8ccc(O)cc8)sc8cc(O)ccc78)cc6)CC5)CC4)ccc3C2=O)C(=O)N1` (stereo not drawn) [Compound 243, 3-[2-[4-[[1-[4-[6-hydroxy-2-(4-hydroxyphenyl)benzothiophen-3-yl]oxyphenyl]-4-piperidyl]methyl]piperazin-1-yl]-5-oxo-7H-pyrrolo[3,4-b]pyridin-6-yl]piperidine-2,6-dione], the IC50 at ERα [1] (setting [5]) was determined as 0.18 nM. In addition, on ERα [3], the DC50 lay in the range of 1 to 10 nM and the Dmax was 50 to 75%.
For `O=C1CCC(N2Cc3cc(N4CCN(CCCOc5ccc(Oc6c(-c7ccc(F)c(F)c7)sc7cc(O)ccc67)cc5)CC4)ccc3C2=O)C(=O)N1` (stereo not drawn) [Compound 221, 3-[5-[4-[3-[4-[2-(3,4-difluorophenyl)-6-hydroxy-benzothiophen-3-yl]oxyphenoxy]propyl]piperazin-1-yl]-1-oxo-isoindolin-2-yl]piperidine-2,6-dione] the same measures were 2.4 nM, 1 to 10 nM and 50 to 75%.
Regarding `O=C1CCC(N2C(=O)c3ccc(N4CC(CN5CCCN(CCOc6ccc(Oc7c(-c8ccc(Br)cc8)sc8cc(O)ccc78)cc6)CC5)C4)cc3C2=O)C(=O)N1` (stereo not drawn) [Compound 191, 5-(3-((4-(2-(4-((2-(4-bromophenyl)-6-hydroxybenzo[b]thiophen-3-yl)oxy)phenoxy)ethyl)-1,4-diazepan-1-yl)methyl)azetidin-1-yl)-2-(2,6-dioxopiperidin-3-yl)isoindoline-1,3-dione], the IC50 at ERα [1] (setting [5]) was 1.8 nM. On ERα [3], this molecule gave a DC50 of 1 to 10 nM and a Dmax of 50 to 75%.
For `O=C1CCC(N2Cc3cc(N4CCN(CCC5CCN(c6ccc(Oc7c(-c8ccc(F)cc8)sc8cc(O)ccc78)cc6)CC5)CC4)ccc3C2=O)C(=O)N1` (stereo not drawn) [Compound 229, 3-[5-[4-[2-[1-[4-[2-(4-fluorophenyl)-6-hydroxy-benzothiophen-3-yl]oxyphenyl]-4-piperidyl]ethyl]piperazin-1-yl]-1-oxo-isoindolin-2-yl]piperidine-2,6-dione] the same measures were 1 nM, 1 to 10 nM and over 75%.
As to `O=C1CCC(N2Cc3cc(CNC(=O)C4CCN(CCOc5ccc(Oc6c(-c7ccc(Br)cc7)sc7cc(O)ccc67)cc5)CC4)ccc3C2=O)C(=O)N1` (stereo not drawn) [Compound 57, 1-(2-(4-(2-(4-bromophenyl)-6-hydroxybenzo[b]thiophen-3-yloxy)phenoxy)ethyl)-N-((2-(2,6-dioxopiperidin-3-yl)-1-oxoisoindolin-5-yl)methyl)piperidine-4-carboxamide], on ERα [1] (Table 1 cereblon centric PROTACs, read-out: ER-α Luciferase IC50), the IC50 worked out at 3 nM. Also, on ERα [3], the DC50 lay in the range of 1 to 10 nM and the Dmax fell in the range of 50 to 75%.
In the case of `O=C1CCC(N2C(=O)c3ccc(NCCCN4CCN(CCOc5ccc(Oc6c(-c7ccc(Br)cc7)sc7cc(O)ccc67)cc5)CC4)cc3C2=O)C(=O)N1` (stereo not drawn) [Compound 177, 5-[3-[4-[2-[4-[2-(4-bromophenyl)-6-hydroxy-benzothiophen-3-yl]oxyphenoxy]ethyl]piperazin-1-yl]propylamino]-2-(2,6-dioxo-3-piperidyl)isoindoline-1,3-dione], the IC50 on ERα [1] (setting [5]) came out at 2.3 nM. At ERα [3], this molecule came in with a DC50 of 1 to 10 nM and a Dmax of over 75%.
